Data reported in PubChem BioAssay (NCI).
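Five compound concentrations were applied to cells in 96-well plates for 48 hours; endpoints were derived by simple linear interpolation of the resulting dose-response curve. TGI denotes the concentration required for complete inhibition of growth.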

Columns and labels:
Experiment in all cases: DTP human tumour cell line panel, 48 h
DMS 273 small cell lung = test system: DMS 273 small cell lung
XF 498 CNS = test system: XF 498 CNS
DLD-1 colon = test system: DLD-1 colon
LXFL 529 NSCLC = test system: LXFL 529 NSCLC
HOP-18 NSCLC = test system: HOP-18 NSCLC
SNB-78 CNS = test system: SNB-78 CNS

Measured: TGI

CSc1nc(C)cc(=O)n1C1OC(COC(C)=O)C(OC(C)=O)C(OC(C)=O)C1OC(C)=O (centres undefined)
> 100 µM: DMS 273 small cell lung | XF 498 CNS | DLD-1 colon | LXFL 529 NSCLC

O[C@]12c3ccccc3C1CCCCC2N1CCOCC1 (some centres undefined)
> 100 µM: HOP-18 NSCLC | DMS 273 small cell lung | XF 498 CNS | SNB-78 CNS | LXFL 529 NSCLC

COc1cccc2c1[C@H]1OC(=O)NC1CCCCC2 (some centres undefined)
> 100 µM: HOP-18 NSCLC | DMS 273 small cell lung | SNB-78 CNS | DLD-1 colon | LXFL 529 NSCLC
